Measured values: paper PMC12670160, “A drug-repurposing screen of FDA- and EMA-approved drugs identifies two NF-κB inhibitors active against eumycetoma” (Journal of Antimicrobial Chemotherapy, 2025)
In brackets after ≈: the same amount, converted by molar mass. Entries after “also recorded” stand apart in the source; their conditions may differ. Read-outs that look alike come from different tables or passages of the source.

Tests used:
M. mycetomatis strain P1 [1] = experiment: microbe, parasite or virus in culture; set-up: species or system Madurella mycetomatis hyphae; conditions: Madurella mycetomatis, P1, 96 h
Procedure: (§1) The Oncode Drug Repurposing library was based on the drug repurposing library from the Drug Repurposing Hub of the Broad Institute and recreated by the Oncode institute.[13] The library contained 5631 drugs.[18] A copy of this library was plated out on 384-well plates with lids (cat no. 655180; Greiner Bio-One, Alphen aan den Rijn, The Netherlands) by the Leiden University Medical Center. Each well of the 384-well plates contained 0.6 µL of a 200 µM stock concentration of compound, resulting in a final concentration of 2 µM when the fungus was added. From the previous libraries we screened, we noted that there are several compounds able to inhibit M. mycetomatis at this concentration in vitro. Furthermore, this concentration could also be reached in the G. mellonella larvae.[8],[11] The prepared 384-well plates were transferred on dry ice to the Erasmus MC and stored at −80°C until they were screened. We created a second library from the original library, containing only those 29 compounds that were active in the first screen. […] To determine the in vitro susceptibility of M. mycetomatis to the compounds, a hyphal inoculum was prepared as described elsewhere.[19] This M. mycetomatis hyphal suspension (60 µL) was added to each of the wells in the 384-well plate, leading to a final testing concentration of 2 µM per compound. Each plate also contained a growth control (60 µL of M. mycetomatis hyphal suspension, plus 0.6 µL of DMSO) and a negative control (60 µL of culture medium, plus 0.6 µL of DMSO). Plates were then incubated for 4 days at 37°C, after which 30 µL of CellTiter-Glo 3D Cell Viability reagent was added to every well.[19] After 25 min of incubation at room temperature, the luminescence was measured with a CytoFluor Series 4000 luminometer (PerSeptive Biosystems, Framingham, MA, USA). To determine the metabolic activity, the following formula was used: For each of these 29 active compounds, the IC50 and MIC were determined for M. mycetomatis strains MM55, P1 and I1 (Table 1 and Table S1).

[2] = tested on: M. mycetomatis strain mm55; experiment: microbe, parasite or virus in culture; set-up: species or system Madurella mycetomatis hyphae; conditions: Madurella mycetomatis, MM55, 96 h
Procedure: as §1

M. mycetomatis strain I1 [3] = experiment: microbe, parasite or virus in culture; set-up: species or system Madurella mycetomatis hyphae; conditions: Madurella mycetomatis, I1, 96 h
Procedure: as §1

M. mycetomatis [4] = experiment: In vitro susceptibility, averages over M. mycetomatis isolates (average metabolic activity at 2 µM, mean MIC); assay type: cell-based, Madurella mycetomatis; conditions: Madurella mycetomatis; mean/average over strains MM55, P1 and I1
[5] = tested on: M. mycetomatis-infected G. mellonella larvae; conditions: only at concentrations higher than used in human patients; cited from earlier work
M. mycetomatis [6] = experiment: In vitro susceptibility, averages over M. mycetomatis isolates (average metabolic activity at 2 µM, mean MIC); assay type: cell-based; conditions: Madurella mycetomatis, 96 h, 4 days at 37°C, CellTiter-Glo, average of 3 isolates, 20% or below = inhibition
Procedure: M. mycetomatis isolate MM55 was used to screen the Oncode library. This strain was kindly provided by Prof. […] The three M. mycetomatis isolates were identified by ITS sequencing and maintained at −80°C at Erasmus MC. Prior to in vitro screening, isolates were cultured on Sabouraud agar plates (BD, Erembodegem, Belgium) at 37°C.
The Oncode Drug Repurposing library was based on the drug repurposing library from the Drug Repurposing Hub of the Broad Institute and recreated by the Oncode institute.[13] […] Each well of the 384-well plates contained 0.6 µL of a 200 µM stock concentration of compound, resulting in a final concentration of 2 µM when the fungus was added. […] Furthermore, this concentration could also be reached in the G. mellonella larvae.[8],[11] The prepared 384-well plates were transferred on dry ice to the Erasmus MC and stored at −80°C until they were screened.
(§2) Each plate also contained a growth control (60 µL of M. mycetomatis hyphal suspension, plus 0.6 µL of DMSO) and a negative control (60 µL of culture medium, plus 0.6 µL of DMSO). Plates were then incubated for 4 days at 37°C, after which 30 µL of CellTiter-Glo 3D Cell Viability reagent was added to every well.[19] After 25 min of incubation at room temperature, the luminescence was measured with a CytoFluor Series 4000 luminometer (PerSeptive Biosystems, Framingham, MA, USA). To determine the metabolic activity, the following formula was used:
(§3) Percentagemetabolicactivity=(Absorbancetestluminensence−AbsorbanceNCluminensence/AbsorbanceGCluminensence−AbsorbanceNCluminensence)×100
(§4) where, GC is growth control and NC is negative control. The luminescence measured for the GC is considered as 100% metabolic activity. The luminescence for the NC is considered as 0% metabolic activity.

M. mycetomatis strain P1 [7] = experiment: IC50 and MIC determination, CellTiter-Glo, strain P1; assay type: cell-based, Madurella mycetomatis; conditions: Madurella mycetomatis, P1
[8] = tested on: M. mycetomatis strain mm55; experiment: IC50 and MIC determination, CellTiter-Glo, strain mm55; assay type: cell-based, Madurella mycetomatis; conditions: Madurella mycetomatis; for IC50: concentration inhibiting 50% of fungal hyphae growth; for MIC: concentration with complete growth inhibition
M. mycetomatis strain I1 [9] = experiment: IC50 and MIC determination, CellTiter-Glo, strain I1; assay type: cell-based, Madurella mycetomatis; conditions: Madurella mycetomatis, I1
M. mycetomatis [10] = tested on: M. mycetomatis; set-up: method as in PMID 35398930, PMID 15793113, PMID 36005544, PMID 34181477, PMID 22964246; conditions: against M. mycetomatis; cited from earlier work
thioredoxin reductase = tested on: thioredoxin reductase; set-up: method as in PMID 39816643; conditions: cited from earlier work
[11] = tested on: itraconazole-susceptible and itraconazole-resistant Aspergillus fumigatus; set-up: method as in PMID 37037064; conditions: cited from earlier work
[12] = tested on: healthy uninfected G. mellonella larvae; conditions: 20 µL of 20 µM injected
Procedure: (§5) For in vivo experiments, sixth-week instar G. mellonella larvae were purchased from Blue-Lagoon, Maassluis, The Netherlands. The larvae were raised and kept in the dark at room temperature. Larvae without any discoloration and weighing around 500 mg were selected for experiments.
To determine the toxicity, 15 healthy uninfected larvae were injected with 20 µL of 20 µM compound as previously described.[16] […] As a control, a separate group of larvae were injected with 20 µL of PBS. Larvae were housed in Petri dishes with Whatman paper at 37°C in the dark. Survival was monitored for 10 days.

[13] = tested on: M. mycetomatis MM55-infected G. mellonella larvae; experiment: Therapeutic efficacy in M. mycetomatis-infected G. mellonella larvae (survival, log-rank); assay type: in vivo, Galleria mellonella; conditions: 20 µL of 20 µM at 4, 28 and 52 h post infection; 10 days
Procedure: as §5
The wet weight was determined and 10 mL of PBS per gram of mycelia was added. The suspension was then sonicated for 2 min to achieve a particle size of 10 µm. The fungal suspension (4 mg/40 µL) was injected into the last left pro-leg of a healthy G. mellonella larva with an insulin 29G U-100 needle to reach a final inoculum of 4 mg/larva. Larvae were placed in Petri dishes containing Whatman paper in a 37°C incubator.
A control group was also included in which M. mycetomatis-infected larvae were treated with PBS or with 1 mg/kg amphotericin B (Fungizone, Bristol Myers Squibb, Utrecht, The Netherlands). […] The treatment was repeated at 28 h post infection and 52 h post infection via different prolegs. The infection was monitored for 10 days.
To compare the survival rates between PBS treatment control and the different experimental groups a log-rank test was performed. All data were processed and performed in GraphPad Prism 10.

eumycetoma = conditions: first 6 months of treatment, cited from earlier work
[14] = tested on: M. mycetomatis isolate MM55; experiment: Oncode library screen at 2 µM, CLSI-based in vitro susceptibility assay with CellTiter-Glo (metabolic activity); assay type: cell-based, Madurella mycetomatis; conditions: primary screen, strain MM55, 20% or below = inhibition
Procedure: M. mycetomatis isolate MM55 was used to screen the Oncode library. This strain was kindly provided by Prof. A. Fahal of the Mycetoma Research Centre in 1999. The most promising hit compounds were also screened against M. mycetomatis isolates P1 and I1, which originated from Mali and India, respectively.[17] The three M. mycetomatis isolates were identified by ITS sequencing and maintained at −80°C at Erasmus MC. Prior to in vitro screening, isolates were cultured on Sabouraud agar plates (BD, Erembodegem, Belgium) at 37°C.
The Oncode Drug Repurposing library was based on the drug repurposing library from the Drug Repurposing Hub of the Broad Institute and recreated by the Oncode institute.[13] The library contained 5631 drugs.[18] A copy of this library was plated out on 384-well plates with lids (cat no. 655180; Greiner Bio-One, Alphen aan den Rijn, The Netherlands) by the Leiden University Medical Center. Each well of the 384-well plates contained 0.6 µL of a 200 µM stock concentration of compound, resulting in a final concentration of 2 µM when the fungus was added. From the previous libraries we screened, we noted that there are several compounds able to inhibit M. mycetomatis at this concentration in vitro. Furthermore, this concentration could also be reached in the G. mellonella larvae.[8],[11] The prepared 384-well plates were transferred on dry ice to the Erasmus MC and stored at −80°C until they were screened. We created a second library from the original library, containing only those 29 compounds that were active in the first screen.
as §2, with “. Each” for “Each”
as §3, §4

## Cc1c(N)nc([C@H](CC(N)=O)NC[C@H](N)C(N)=O)nc1C(=O)N[C@H](C(=O)N[C@H](C)[C@@H](O)[C@H](C)C(=O)N[C@H](C(=O)NCCc1nc(-c2nc(C(=O)NCCCNCCCCN)cs2)cs1)[C@@H](C)O)[C@@H](O[C@@H]1O[C@@H](CO)[C@@H](O)[C@H](O)[C@@H]1O[C@@H]1O[C@H](CO)[C@@H](O)[C@H](OC(N)=O)[C@@H]1O)c1cnc[nH]1 [ONC0002990, bleomycetin]
M. mycetomatis strain P1 [1]
  IC50: < 0.03 µM
  MIC: < 0.03 µM
[2]
  IC50: 0.21 µM
  MIC: 0.5 µM (≈ 0.72 µg/mL)
M. mycetomatis strain I1 [3]
  IC50: 0.2 µM
  MIC: 0.5 µM (≈ 0.72 µg/mL)

## CC[C@@H]([C@H](C)O)n1ncn(-c2ccc(N3CCN(c4ccc(OC[C@@H]5CO[C@@](Cn6cncn6)(c6ccc(F)cc6F)C5)cc4)CC3)cc2)c1=O [Posaconazole]
M. mycetomatis [4]
  MIC: < 0.03 µM
[5]
  larval survival: Prolonged survival
M. mycetomatis [6]
  activity at 2 µM: 1.9%
M. mycetomatis strain P1 [7]
  IC50: < 0.03 µM
  MIC: 0.03 µM (≈ 0.021 µg/mL)
[8]
  IC50: 0.13 µM
  MIC: 0.25 µM (≈ 0.175 µg/mL)
M. mycetomatis strain I1 [9]
  IC50: < 0.03 µM
  MIC: 0.03 µM (≈ 0.021 µg/mL)
M. mycetomatis [10]
  MIC50: 0.03 µg/mL (≈ 0.0428 µM)

## CC(=O)OC[C@H]1O[C@@H]([S-])[C@H](OC(C)=O)[C@@H](OC(C)=O)[C@@H]1OC(C)=O.CCP(CC)CC.[Au+] [auranofin]
Thioredoxin reductase
  thioredoxin reductase inhibition: able to inhibit thioredoxin reductase
[11]
  Aspergillus biofilm formation: inhibitory activity
[11]; itraconazole-susceptible and itraconazole-resistant A. fumigatus
  antifungal activity: potent antifungal activity

## CC(C)(C)c1ccc(S(=O)(=O)/C=C/C#N)cc1 [bay117085]
Thioredoxin reductase
  thioredoxin reductase inhibition: able to inhibit thioredoxin reductase
M. mycetomatis [6]
  activity at 2 µM: 4%
M. mycetomatis strain P1 [7]
  IC50: 0.85 µM
  MIC: 2 µM (≈ 0.499 µg/mL)
[12]; 10 day observation, toxic if more than 20% of larvae died
  Toxicity in G. mellonella larvae at 20 µM: not toxic
[12]; 10 days, uninfected larvae
  larval survival: above 80%
[8]
  IC50: 1.51 µM
  MIC: 2 µM (≈ 0.499 µg/mL)
M. mycetomatis strain I1 [9]
  IC50: 0.72 µM
  MIC: 1 µM (≈ 0.249 µg/mL)
[13]
  Survival of M. mycetomatis-infected larvae versus PBS: prolonged the survival; also recorded: prolonged larval survival

## C[C@@H](c1nc(-c2ccc(C#N)cc2)cs1)[C@@](Cn1cncn1)(OCOP(=O)(O)O)c1ccc(F)cc1F [fosravuconazole]
eumycetoma; 200 mg/week
  lesion size or β-glucan levels: no reduction
eumycetoma; 300 mg/week
  lesion size or β-glucan levels: no reduction

## COC(=O)C1=C(C#N)NC(C)=C(C(=O)OC(C)C)C1c1cccc([N+](=O)[O-])c1 (stereo not drawn) [nilvadipine arc029]
[14]
  Madurella mycetomatis metabolic activity at 2µM (%): 85.2%

## Cc1ccc(-c2c(-c3nn(C)c4ncnc(N5CC[C@H](N6CCCCC6)C5)c34)cnn2C)cc1 [pf4981517]
[14]
  Madurella mycetomatis metabolic activity at 2µM (%): 79.1%

## O=C(NC[C@H]1CN(c2ccc(N3CCOCC3=O)cc2)C(=O)O1)c1ccc(Cl)s1 [rivaroxaban xarelto]
[14]
  Madurella mycetomatis metabolic activity at 2µM (%): 98.3%

## CC(C)OC(=O)C1=CN(C(=O)c2ccc(F)c(F)c2)CC(C)(C)c2c1[nH]c1ccccc21 [turofexorate isopropyl xl335]
[14]
  Madurella mycetomatis metabolic activity at 2µM (%): 92.4%
